Experiments:
HeLa [1] = assay: Inhibition of DNA replication in human HeLa cells assessed as increase in replication fork speed per min at 5 uM after 4 hrs by immunofluorescence assay; assay type: functional
K562 [2] = assay: Induction of cell cycle arrest in p53 deficient human K562 cells assessed as residual DNA synthesis at 5 uM after 24hrs by FACS analysis; assay type: functional
HeLa [3] = assay: Inhibition of DNA replication in human HeLa cells assessed as interorigin distance between homogenous DNA fibers at 20 uM after 4 hrs by immunofluorescence assay; assay type: functional
HeLa [4] = assay: Inhibition of DNA replication in human HeLa cells assessed as interorigin distance between homogenous DNA fibers at 5 uM after 6 hrs by immunofluorescence assay; assay type: functional
HeLa [5] = assay: Induction of cell cycle arrest in p53 deficient human HeLa cells assessed as residual DNA synthesis at 10 uM after 24 hrs by FACS analysis; assay type: functional
[6] = molecular target: Serine/threonine-protein kinase NIM1 (Homo sapiens, UniProt Q8IY84); assay: Inhibition of NIM1
HeLa [7] = assay: Inhibition of DNA synthesis in human HeLa cells assessed as Brd-U uptake at 5 uM by FACS analysis; assay type: functional; parameters: scale not given: the % may be the effect or the level left
HCT-116 = assay: Induction of cell cycle arrest in human HCT116 cells expressing p53 gene assessed as residual DNA synthesis at 10 uM after 24 hrs by FACS analysis; assay type: functional
[8] = Clearance in rat carrying DMBA-induced mammary carcinoma at 10 mg/kg, iv after 10 hrs; assay type: ADME, organism-based; parameters: dose 10 mg/kg, route intravenous; conditions: in vivo
U2OS [9] = assay: Induction of cell cycle arrest in human U2OS cells expressing p53 gene assessed as accumulation at subG1 phase at 10 uM after 24 hrs by FACS analysis; assay type: functional
[10] = molecular target: Inhibitor of nuclear factor kappa-B kinase subunit beta (Homo sapiens, UniProt O14920); assay: Inhibition of IKK2
[11] = Induction of cell cycle arrest in p53 deficient human A2780/E6 cells assessed as residual DNA synthesis at 10 uM after 24 hrs by FACS analysis; assay type: functional
K562 [12] = assay: Induction of cell cycle arrest in p53 deficient human K562 cells assessed as accumulation at subG1 phase at 5 uM after 24hrs by FACS analysis; assay type: functional
[13] = Induction of cell cycle arrest in p53 deficient human A2780/E6 cells assessed as residual DNA synthesis at 5 uM after 24 hrs by FACS analysis; assay type: functional
HeLa [14] = assay: Inhibition of DNA replication in human HeLa cells assessed as increase in replication fork speed per min at 5 uM after 2 hrs by immunofluorescence assay; assay type: functional
HCT-15 [15] = assay: Induction of cell cycle arrest in human HCT15 cells expressing p53 gene assessed as accumulation at subG1 phase at 10 uM after 24 hrs by FACS analysis; assay type: functional
SF-268 [16] = assay: Antiproliferative activity against p53 deficient human SF268 cells after 72 hrs; assay type: functional, cell-based; conditions: SF-268, 72 h
HCT-15 [17] = assay: Antiproliferative activity against human HCT15 cells expressing p53 gene after 72 hrs by proliferative assay; assay type: functional, cell-based; conditions: HCT-15, 72 h
Mus musculus = assay: AUC in SCID mouse carrying human HL60 cells at 20 mg/kg, iv after 10 hrs; assay type: ADME, organism-based, HL-60; parameters: time < 10 hr, dose 20 mg/kg, route intravenous; conditions: in vivo
Rattus norvegicus = assay: AUC in rat carrying DMBA-induced mammary carcinoma at 10 mg/kg, iv after 10 hrs; assay type: ADME, organism-based, Plasma; parameters: time < 10 hr, dose 10 mg/kg, route intravenous; conditions: in vivo
[18] = Induction of cell cycle arrest in p53 deficient human HCT116-E6 cells assessed as accumulation at subG1 phase at 10 uM after 24hrs by FACS analysis; assay type: functional
SW480 = assay: Induction of cell cycle arrest in p53 deficient human SW480 cells assessed as residual DNA synthesis at 5 uM after 24 hrs by FACS analysis; assay type: functional
SF-539 = assay: Induction of cell cycle arrest in human SF539 cells expressing p53 gene assessed as accumulation at subG1 phase at 5 uM after 24hrs by FACS analysis; assay type: functional
NHDF [19] = assay: Induction of cell cycle arrest in thymidine deficient NHDF assessed as DNA synthesis in S-phase at 5 uM after 16hrs FACS analysis in presence of serum; assay type: cell-based; conditions: human
NHDF [20] = assay: Induction of cell cycle arrest in NHDF expressing p53 gene assessed as accumulation at subG1 phase at 10 uM after 24 hrs by FACS analysis; assay type: cell-based; conditions: human
[21] = Inhibition of PDGFR
Jurkat [22] = assay: Induction of cell cycle arrest in p53 deficient human Jurkat cells assessed as accumulation at subG1 phase at 10 uM after 24hrs by FACS analysis; assay type: functional
[23] = Clearance in SCID mouse carrying human HL60 cells at 20 mg/kg or 30 mg/kg, iv after 10 hrs; assay type: ADME, organism-based, HL-60; conditions: in vivo
PC-3 = assay: Induction of cell cycle arrest in human PC3 cells expressing p53 gene assessed as accumulation at subG1 phase at 10 uM after 24 hrs by FACS analysis; assay type: functional
Jurkat [24] = assay: Induction of cell cycle arrest in p53 deficient human Jurkat cells assessed as residual DNA synthesis at 5 uM after 24 hrs by FACS analysis; assay type: functional
COLO 205 = assay: Induction of cell cycle arrest in p53 deficient human COLO205 cells assessed as accumulation at subG1 phase at 10 uM after 24hrs by FACS analysis; assay type: functional
HeLa [25] = assay: Induction of cell cycle arrest in p53 deficient human HeLa cells assessed as residual DNA synthesis at 5 uM after 24hrs by FACS analysis; assay type: functional
HeLa [26] = assay: Inhibition of DNA replication in human HeLa cells assessed as interorigin distance between homogenous DNA fibers at 2 uM after 4 hrs by immunofluorescence assay; assay type: functional
[27] = Induction of cell cycle arrest in p53 deficient human HCT116-E6 cells assessed as accumulation at subG1 phase at 5 uM after 24hrs by FACS analysis; assay type: functional
U2OS [28] = assay: Induction of cell cycle arrest in human U2OS cells expressing p53 gene assessed as residual DNA synthesis at 10 uM after 24 hrs by FACS analysis; assay type: functional
HeLa [29] = assay: Inhibition of DNA replication in human HeLa cells assessed as interorigin distance between homogenous DNA fibers at 20 uM after 2 hrs by immunofluorescence assay; assay type: functional
HeLa [30] = assay: Inhibition of DNA replication in human HeLa cells assessed as increase in replication fork speed per min at 5 uM after 6 hrs by immunofluorescence assay; assay type: functional
SF-268 [31] = assay: Induction of cell cycle arrest in p53 deficient human SF268 cells assessed as residual DNA synthesis at 10 uM after 24 hrs by FACS analysis; assay type: functional
U2OS [32] = assay: Antiproliferative activity against human U2OS cells expressing p53 gene after 72 hrs by proliferative assay; assay type: functional, cell-based
[33] = Antiproliferative activity against human NCI60 cells
Jurkat [34] = assay: Antiproliferative activity against p53 deficient human Jurkat cells after 72 hrs by proliferative assay; assay type: functional, cell-based
HeLa [35] = assay: Inhibition of DNA replication in human HeLa cells assessed as interorigin distance between homogenous DNA fibers at 5 uM after 2 hrs by immunofluorescence assay; assay type: functional
MCF7 = assay: Induction of cell cycle arrest in human MCF7 cells expressing p53 gene assessed as accumulation at subG1 phase at 5 uM after 24hrs by FACS analysis; assay type: functional

Sequence of Serine/threonine-protein kinase NIM1 (Q8IY84 whole entry): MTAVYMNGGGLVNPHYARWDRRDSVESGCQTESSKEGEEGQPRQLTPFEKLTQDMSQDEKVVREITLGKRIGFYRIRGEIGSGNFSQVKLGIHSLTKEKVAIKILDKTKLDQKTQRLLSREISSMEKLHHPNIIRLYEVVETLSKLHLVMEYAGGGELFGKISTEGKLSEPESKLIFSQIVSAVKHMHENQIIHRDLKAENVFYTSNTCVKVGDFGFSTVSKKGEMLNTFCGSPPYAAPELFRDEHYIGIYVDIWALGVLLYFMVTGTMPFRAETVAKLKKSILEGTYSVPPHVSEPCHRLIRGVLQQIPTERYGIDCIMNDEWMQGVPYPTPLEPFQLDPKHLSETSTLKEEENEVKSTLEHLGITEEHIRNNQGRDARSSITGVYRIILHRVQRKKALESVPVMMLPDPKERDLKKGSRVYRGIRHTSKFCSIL
Sequence of Inhibitor of nuclear factor kappa-B kinase subunit beta (O14920 whole entry): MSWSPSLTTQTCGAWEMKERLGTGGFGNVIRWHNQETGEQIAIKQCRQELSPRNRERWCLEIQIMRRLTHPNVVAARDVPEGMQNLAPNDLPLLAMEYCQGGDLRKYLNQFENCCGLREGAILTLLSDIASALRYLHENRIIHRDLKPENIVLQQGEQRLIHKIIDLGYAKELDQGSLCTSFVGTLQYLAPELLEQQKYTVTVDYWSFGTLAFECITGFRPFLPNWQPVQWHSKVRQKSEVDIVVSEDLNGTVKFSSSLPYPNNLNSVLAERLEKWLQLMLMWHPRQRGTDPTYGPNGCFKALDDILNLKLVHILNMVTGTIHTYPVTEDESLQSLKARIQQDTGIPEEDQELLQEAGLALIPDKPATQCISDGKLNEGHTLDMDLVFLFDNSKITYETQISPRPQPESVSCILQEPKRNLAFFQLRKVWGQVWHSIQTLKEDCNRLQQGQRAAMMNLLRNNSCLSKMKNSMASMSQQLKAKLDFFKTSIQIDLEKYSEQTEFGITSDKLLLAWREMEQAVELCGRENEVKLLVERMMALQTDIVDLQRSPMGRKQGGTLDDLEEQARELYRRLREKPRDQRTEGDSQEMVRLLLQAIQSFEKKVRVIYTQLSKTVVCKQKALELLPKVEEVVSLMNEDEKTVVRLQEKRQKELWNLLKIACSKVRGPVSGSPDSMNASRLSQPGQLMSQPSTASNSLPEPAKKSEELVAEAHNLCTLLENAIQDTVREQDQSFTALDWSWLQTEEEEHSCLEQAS

## O=C1NCCc2[nH]c(-c3ccncc3)cc21
HeLa [1]
  Activity: 2.02 kilobase
K562 [2]
  Activity: 10%
HeLa [3]
  Activity: 287 kilobase
HeLa [4]
  Activity: 293 kilobase
HeLa [5]
  Activity: <3%
[6]
  IC50: > 10 µM
HeLa [7]
  Activity: 37%
HCT-116
  Activity: <3%
[8]
  clearance: 30 mL/min/kg
U2OS [9]
  Activity: 3%
[10]
  IC50: > 10 µM
[11]
  Activity: <3%
K562 [12]
  Activity: <3%
[13]
  Activity: <3%
HeLa [14]
  Activity: 1.86 kilobase
HCT-15 [15]
  Activity: 3%
SF-268 [16]
  IC50: 0.86 µM
HCT-15 [17]
  IC50: 3.81 µM
Mus musculus
  AUC: 47 µM·h
Rattus norvegicus
  AUC: 21 µM·h
[18]
  Activity: 3%
SW480
  Activity: <3%
SF-539
  Activity: 3%
NHDF [19]
  Activity: Active
NHDF [20]
  Activity: < 3%
[21]
  IC50: > 10 µM
Jurkat [22]
  Activity: >20%
[23]
  clearance: 30 mL/min/kg
PC-3
  Activity: 3%
Jurkat [24]
  Activity: <3%
COLO 205
  Activity: >20%
HeLa [25]
  Activity: <3%
HeLa [26]
  Activity: 236 kilobase
[27]
  Activity: 3%
U2OS [28]
  Activity: <3%
HeLa [29]
  Activity: 226 kilobase
HeLa [30]
  Activity: 2.14 kilobase
SF-268 [31]
  Activity: <3%
U2OS [32]
  IC50: 1.49 µM
[33]
  IC50: 3.1 µM
Jurkat [34]
  IC50: 3.2 µM
HeLa [35]
  Activity: 210 kilobase
MCF7
  Activity: 3%
